{"source": "paper PMC12154214", "about": "“Bioactive Peptides from Sodium Caseinate Hydrolysate with High Oral Absorption Regulate Blood Glucose in Type 2 Diabetic Mice via Inhibition of DPP-IV and Stimulation of GLP-1” (Foods, 2025)", "key": {"[1]": {"test_system": "STC-1 cells", "test": "In vitro GLP-1 secretion in STC-1 cells", "type": "cell-based", "conditions": "STC-1 cells, 2.0, 2.5 and 3.0 mM, 3 h", "method": "(§1) NCI-H716 and STC-1 enteroendocrine cell lines are widely conducted to investigate the mechanisms of GLP-1 expression. The STC-1 and NCI-H716 cell lines in this study were sourced from Bioresource Collection and Research (BCRC, Hsinchu, Taiwan). STC-1 cells were seeded in 12-well plates at 2 × 10^6 cells/mL, while NCI-H716 cells were seeded in Matrigel-coated 12-well plates at 2 × 10^5 cells/mL. Upon reaching 85% confluence, the supernatants were replaced with HEPES buffer for STC-1 and RPMI-1640 buffer without FBS for NCI-H716. […] After incubating at 37 °C with 5% CO2 for 3 h, the supernatants were harvested and assessed for GLP-1 levels using the active glucagon-like peptide-1 kit from Millipore Corp. (Billerica, MA, USA)."}, "[2]": {"test_system": "plasma insulin", "test": "Plasma insulin level in db/db mice (ELISA)", "type": "in vivo", "conditions": "after 3-week treatment, 1CBR 500 mg/kg/day, sitagliptin 20.5 mg/kg/day, untreated group C 6.51", "method": "(§2) Between the ages of 6 and 8 weeks, the blood glucose concentrations in the mice were monitored weekly. Diabetes was determined in mice when the blood glucose levels surpassed 400 mg/dL after an OGTT test (oral glucose tolerance). The mice were randomly allocated to three groups, each consisting of 13 individuals. The experimental period lasted for 3 weeks. […] Mice were housed in groups of 3–4 per cage. The sample size was determined based on previous studies and ethical considerations (3Rs principle) to achieve adequate statistical power without excessive animal use. […] This dose was also within the effective range reported for other food-derived bioactive protein hydrolysates in rodent models.\n(§3) At week 3, blood samples were obtained from all mice into EDTA-treated chilled tubes and then centrifuged at 3000× g for 15 min. The supernatant was kept on ice for up to 3 h for further analysis. Plasma insulin levels and DPP-IV activity were determined using an insulin ELISA kit (Mercodia AB, Uppsala, Sweden) and a DPP-IV assay kit (Enzo Inc., Farmingdale, NY, USA), respectively. Plasma total GLP-1 levels were measured using the glucagon-like peptide-1 (total) kit from RayBiotech Inc. (Norcross, GA, USA), while active GLP-1 levels were assessed with the active GLP-1 kit from Millipore Corp. (Billerica, MA, USA), each from a different supplier."}, "[3]": {"test_system": "active GLP-1", "test": "Plasma active GLP-1 level in db/db mice", "type": "in vivo", "conditions": "after 3-week treatment, 1CBR 500 mg/kg/day, sitagliptin 20.5 mg/kg/day, group C 5.22", "method": "as §2, §3"}, "[4]": {"test_system": "db/db mice", "test": "Oral glucose tolerance test (OGTT) in db/db mice", "type": "in vivo", "conditions": "week 3, glucose 2 g/kg, 120 min, 1CBR 500 mg/kg/day, sitagliptin 20.5 mg/kg/day, p < 0.05", "experimental": "In this study, db/db mice (BKS.Cg-Dock7m+/+Leprdb/JNarl from National Laboratory Animal Center, Taipei, Taiwan) 5 weeks of age and weighing 22–25 g were analyzed. The mice were given the 5001-Laboratory Rodent Diet (LabDiet®, St. Louis, MO, USA), which comprised 57% carbohydrate, 13% fat, and 30% protein by total kcal.\nAn OGTT was conducted on mice fasted overnight from each group at week 0 and week 3. Blood samples were collected by retro-orbital bleed at 0 to 120 min following a glucose challenge (2 g/kg) to determine glucose levels using a Glucose GOD-PAP kit (Randox Laboratories Ltd., Crumlin, UK)."}, "[5]": {"test_system": "total GLP-1", "test": "Plasma total GLP-1 level in db/db mice", "type": "in vivo", "conditions": "after 3-week treatment, 1CBR 500 mg/kg/day, sitagliptin 20.5 mg/kg/day", "method": "as §2, §3"}, "[6]": {"test_system": "NCI-H716 cells", "test": "In vitro GLP-1 secretion in NCI-H716 cells", "type": "cell-based, human", "conditions": "NCI-H716 cells, 2.0, 2.5 and 3.0 mM, 3 h", "method": "as §1"}, "[7]": {"test": "MALDI-TOF/TOF check of intact peptide in rat plasma", "type": "in vivo, Sprague–Dawley rats", "conditions": "60 min post-administration, oral 16 mg/kg BW", "method": "A 0.6 μL aliquot of peptide solution (1 mg/mL) was mixed with an equal volume of saturated α-cyano-4-hydroxycinnamic acid matrix and then air-dried on the target plate. The dried sample was subsequently analyzed using MALDI-TOF/TOF MS in positive ion reflection mode under a 20 kV accelerating voltage. Mass spectra were generated by averaging 200 laser shots within an m/z range of 200–2500 Da. Tandem mass spectrometry (MS/MS) was performed to determine peptide sequences, with data processed using BioTools software (Version 3.2, Bruker Daltonics, Billerica, MA, USA).\nTo verify that the peaks observed in the RP-HPLC chromatogram corresponded to the intact peptides GPFPLPD and […], plasma samples from rats with or without peptide administration were analyzed by MALDI-TOF/TOF, as described in Section 2.4.2."}, "[8]": {"molecular_target": "T1, DPP-IV (Sus scrofa, UniProt P22411)", "T1 construct": "purchased Sigma-Aldrich D7052; host or cells: porcine kidney (tissue-derived)", "T1 sequence (P22411 whole entry)": "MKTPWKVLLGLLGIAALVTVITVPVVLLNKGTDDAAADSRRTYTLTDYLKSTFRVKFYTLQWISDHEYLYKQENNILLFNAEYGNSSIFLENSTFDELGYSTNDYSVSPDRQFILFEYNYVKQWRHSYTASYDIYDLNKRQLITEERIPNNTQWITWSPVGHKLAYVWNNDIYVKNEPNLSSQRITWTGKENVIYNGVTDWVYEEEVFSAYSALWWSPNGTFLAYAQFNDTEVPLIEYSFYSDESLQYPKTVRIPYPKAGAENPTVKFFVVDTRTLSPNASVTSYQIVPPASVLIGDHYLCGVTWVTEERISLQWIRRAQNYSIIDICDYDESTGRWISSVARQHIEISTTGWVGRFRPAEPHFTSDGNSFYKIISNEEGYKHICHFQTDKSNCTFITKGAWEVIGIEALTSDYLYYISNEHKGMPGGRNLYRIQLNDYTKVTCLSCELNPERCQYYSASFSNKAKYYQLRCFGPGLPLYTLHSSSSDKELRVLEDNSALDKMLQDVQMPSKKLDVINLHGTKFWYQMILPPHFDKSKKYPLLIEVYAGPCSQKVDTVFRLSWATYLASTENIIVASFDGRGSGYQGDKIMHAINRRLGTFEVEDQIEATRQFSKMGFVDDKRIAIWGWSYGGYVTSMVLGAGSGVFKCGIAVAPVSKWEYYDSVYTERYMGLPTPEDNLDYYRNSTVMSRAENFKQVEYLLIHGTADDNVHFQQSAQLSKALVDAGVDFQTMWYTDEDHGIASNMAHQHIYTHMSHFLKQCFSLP", "test": "In vitro DPP-IV inhibition assay", "type": "biochemical, porcine", "conditions": "synthesized peptides, in vitro enzymatic assay", "description": "Sodium caseinate was obtained from Gemfont Inc. (Taipei, Taiwan). Bromelain, derived from pineapple stem, was obtained from STBIO Media Inc. (New Taipei, Taiwan). Dipeptidyl peptidase-IV (DPP-IV; D7052, sourced from porcine kidney), Gly-Pro-p-nitroanilide, HEPES sodium salt (H3784), and RPMI-1640 medium (R8758) were obtained from Sigma-Aldrich (St. Louis, MO, USA). The remaining chemicals and reagents were of analytical grade and were available from commercial suppliers.\nIn this study, 1CBR was purified by RP-HPLC using a Model L-2130 HPLC system (Hitachi Ltd., Katsuda, Japan). Afterward, 2 mg of the lyophilized hydrolysate fraction was reconstituted in 1 mL of ddH2O, and 60 μL of the resulting solution was subjected to injection onto a ZORBAX Eclipse Plus C18 column (4.6 mm × 250 mm, Agilent Tech. Inc., Santa Clara, CA, USA) for analysis. A gradient of acetonitrile, ranging from 5% to 60% over 60 min, was applied in 0.1% TFA at 0.7 mL/min. Peptides were monitored at 220 nm. After collection, each fraction was lyophilized and stored in a desiccator for future use. The fractions were then re-dissolved in 100 mM Tris buffer (pH 7.0) to achieve a 1 mg/mL concentration and were evaluated for in vitro DPP-IV inhibitory activity. The assay for DPP-IV inhibition was conducted following the procedure outlined in our previous study.\nThe selected peptides were generated through Fmoc-based solid-phase peptide synthesis using an automated synthesizer (CS 136, CS Bio Co., San Carlos, CA, USA). Their structural integrity and purity were confirmed via RP-HPLC-MS/MS analysis. To assess their inhibitory potential against DPP-IV, the IC50 values were determined through in vitro enzymatic assays. […]"}, "[9]": {"design": "species or system Sprague–Dawley rats", "conditions": "rat, in vivo; for AR30 (absorption ratio at 30 min) / AR90 (absorption ratio at 90 min) / AUC / Cmax / Fractional absorption / Tmax / half-life: po, 16 mg/kg", "description": "In this study, GPFPLPD and […] peptides were synthesized and prepared for the in vivo absorption study as outlined in Section 2.4. The experiment involved ten male Sprague–Dawley rats (LASCO, Taipei, Taiwan), each 6 weeks old and weighing between 230 and 250 g. Prior to the experiment, the rats were allowed a 7-day acclimatization period, during which they were fed a 5012-Rat Diet (LabDiet®, St. Louis, MO, USA), consisting of 60% carbohydrates, 13% fat, and 27% protein based on total caloric content. The rats were randomly assigned to two groups (5 rats per group) and orally administered a single dose of either GPFPLPD or […] peptide at 16 mg/kg body weight.\nOvernight-fasted rats were administered the peptides, and blood samples were collected from the tail vein at 0, 30, 60, 90, and 180 min post-administration. To obtain plasma, the samples were centrifuged at 3000× g for 15 min at 4 °C. A 500 µL aliquot of plasma was then combined with an equal volume of acetonitrile, followed by additional centrifugation at 1200× g for 10 min at 4 °C to precipitate high-molecular-weight proteins. The resulting supernatant (20 µL) was analyzed via RP-HPLC under the conditions outlined in Section 2.4. Peptide concentrations were quantified using calibration curves from peptide standards prepared in 50% (v/v) acetonitrile (Figure S4). The estimated blood volume of male rats was 6.86 mL per 100 g of body weight.\nThe pharmacokinetic parameters, including the half-life (t1/2), area under the plasma drug concentration–time curve (AUC), time-to-peak concentration (Tmax), and peak concentration (Cmax), were directly determined and analyzed. The absorption ratio (ARt; %) was defined as the percentage of the administered peptide dose (16 mg/kg BW) present in plasma, calculated as the product of peptide concentration and blood volume at each time point. The AUC method was also employed to quantify peptide absorption. The fractional absorption (%) of orally administered peptides was calculated using the following formula [23]: Fractional absorption (%)=ln2/t1/2×calculated oral AUC×plasma volume/oral dose×100"}, "[10]": {"design": "method as in PMID 25387326", "conditions": "adult Wistar rats, 40 mg/kg BW; cited from earlier work"}, "[11]": {"design": "method as in PMID 38581395", "conditions": "rat model, cited from earlier work"}, "[12]": {"design": "method as in PMID 29732892", "conditions": "rats, single oral dose 100 mg/kg body weight; cited from earlier work"}}, "note": "“Also recorded” adds a separate entry of the source. Where two headings read alike, the source gives them in different places. No end group written: not given here.", "data": [{"compound": "N[C@@H](CC(=O)N1CCn2c(nnc2C(F)(F)F)C1)Cc1cc(F)c(F)cc1F", "note": "[sitagliptin]", "values": [{"measurement": "effect on GLP-1 secretion (in words)", "setting": "[1]", "result": "did not influence GLP-1 secretion; also recorded: failed to induce GLP-1 secretion"}, {"measurement": "plasma insulin level", "setting": "[2]", "result": 11.31, "unit": "µg/L"}, {"measurement": "plasma active GLP-1 level", "setting": "[3]", "result": 12.29, "unit": "pM"}, {"measurement": "OGTT AUC compared to group C", "setting": "[4]", "result": "significantly lower AUC values"}, {"measurement": "plasma total GLP-1 level", "setting": "[5]", "result": "unchanged"}, {"measurement": "effect on GLP-1 secretion (in words)", "setting": "[6]", "result": "did not influence GLP-1 secretion; also recorded: failed to induce GLP-1 secretion"}]}, {"compound": "APDSGNFR", "values": [{"measurement": "structural integrity in plasma (MALDI-TOF/TOF)", "setting": "[7]", "result": "remained structurally intact"}, {"measurement": "IC50", "setting": "[8]", "result": 73.1, "unit": "µM"}, {"measurement": "oral bioavailability", "setting": "[9]", "result": 19.12, "unit": "%"}, {"measurement": "AR30 (absorption ratio at 30 min)", "setting": "[9]", "result": "12.74 ± 2.17", "unit": "%"}, {"measurement": "AR90 (absorption ratio at 90 min)", "setting": "[9]", "result": "12.40 ± 1.97", "unit": "%"}, {"measurement": "AUC", "setting": "[9]", "result": 66600, "unit": "ng·h/mL"}, {"measurement": "Cmax", "setting": "[9]", "result": "44600 ± 9330", "unit": "ng/mL"}, {"measurement": "Fractional absorption", "setting": "[9]", "result": 10.8, "unit": "%"}, {"measurement": "Tmax", "setting": "[9]", "result": 1, "unit": "h"}, {"measurement": "half-life", "setting": "[9]", "result": 1.82, "unit": "h"}]}, {"compound": "GGHLFFC [GGHLFFC]", "values": [{"measurement": "IC50", "setting": "[8]", "result": 642, "unit": "µM"}]}, {"compound": "GGKPSSMT", "values": [{"measurement": "IC50", "setting": "[8]", "result": 839, "unit": "µM"}]}, {"compound": "GPFPLPD [GPFPLPD]", "values": [{"measurement": "structural integrity in plasma (MALDI-TOF/TOF)", "setting": "[7]", "result": "remained structurally intact"}, {"measurement": "IC50", "setting": "[8]", "result": 99.1, "unit": "µM"}, {"measurement": "oral bioavailability", "setting": "[9]", "result": 11.28, "unit": "%"}, {"measurement": "AR30 (absorption ratio at 30 min)", "setting": "[9]", "result": "10.21 ± 1.48", "unit": "%"}, {"measurement": "AR90 (absorption ratio at 90 min)", "setting": "[9]", "result": "6.52 ± 0.66", "unit": "%"}, {"measurement": "AUC", "setting": "[9]", "result": 40200, "unit": "ng·h/mL"}, {"measurement": "Cmax", "setting": "[9]", "result": "26100 ± 4120", "unit": "ng/mL"}, {"measurement": "Fractional absorption", "setting": "[9]", "result": 7.2, "unit": "%"}, {"measurement": "Tmax", "setting": "[9]", "result": 1, "unit": "h"}, {"measurement": "half-life", "setting": "[9]", "result": 1.65, "unit": "h"}]}, {"compound": "HLPLP", "values": [{"measurement": "Cmax", "setting": "[10]", "result": 20.1, "unit": "ng/mL"}, {"measurement": "absolute bioavailability", "setting": "[10]", "result": 5.18, "unit": "%"}]}, {"compound": "IRW", "values": [{"measurement": "elimination half-life", "setting": "[11]; intravenous injection", "result": 0.475, "unit": "h"}, {"measurement": "elimination half-life", "setting": "[11]; oral administration", "result": 0.132, "unit": "h"}, {"measurement": "bioavailability", "setting": "[11]", "result": 11.7, "unit": "%"}]}, {"compound": "WDHHAPQLR [antioxidative peptide]", "values": [{"measurement": "bioavailability", "setting": "[12]", "result": 3.56, "unit": "%"}, {"measurement": "elimination half-life", "setting": "[12]", "result": 1.19, "unit": "h"}]}]}
